Values quoted from earlier work as cited in US20230193011A1, “COLOR CHANGING POLYMERIC RESIN COMPOSITIONS” (ECOLAB USA INC., priority 2021, published 2023).
Read-outs that look alike come from different tables or passages of the source.

Conditions: for High pH color: color above the transition range; for Low pH color: color below the transition range; for pH start: pH at which the color change begins; for pH end: pH at which the color change ends
[1] = listed as Malachite green - step 2

Row | Molecule | pKa | High pH color | Low pH color | pH start | pH end | also measured
1 | O=C(O)c1cc(N=Nc2ccc([N+](=O)[O-])cc2)ccc1O [Alizarin yellow R] | 11.2 | red | yellow | 10.1 | 12.0 | –
2 | Cc1c(C2(c3cc(Br)c(O)c(Br)c3C)OS(=O)(=O)c3ccccc32)cc(Br)c(O)c1Br [Bromocresol green] | 4.7 | blue | yellow | 3.8 | 5.4 | –
3 | Cc1cc(C2(c3cc(C)c(O)c(Br)c3)OS(=O)(=O)c3ccccc32)cc(Br)c1O [Bromocresol purple] | 6.4 | purple | yellow | 5.2 | 6.8 | –
4 | O=S1(=O)OC(c2cc(Br)c(O)c(Br)c2)(c2cc(Br)c(O)c(Br)c2)c2ccccc21 [Bromophenol blue] | – | blue | yellow | 3.0 | 4.6 | –
5 | Cc1c(C2(c3cc(C(C)C)c(O)c(Br)c3C)OS(=O)(=O)c3ccccc32)cc(C(C)C)c(O)c1Br [Bromothymol blue] | – | blue | yellow | 6.0 | 7.6 | –
6 | Cc1cc(C2(c3ccc(O)c(C)c3)OS(=O)(=O)c3ccccc32)ccc1O [Cresol red - step 1, Cresol red] | – | yellow | red | 0.2 | 1.8 | High pH color (listed as Cresol red - step 2): reddish-; Low pH color (listed as Cresol red - step 2): yellow; pH start (listed as Cresol red - step 2): 7.2; pH end (listed as Cresol red - step 2): 8.8
7 | CN(C)c1ccc(C(=C2C=CC(=[N+](C)C)C=C2)c2ccccc2)cc1 [Malachite green - step 1, Malachite green] | – | green | yellow | 0.2 | 1.8 | High pH color [1]: colorless; Low pH color [1]: green; pH start [1]: 11.5; pH end [1]: 13.2
8 | CN(C)c1ccc(N=Nc2ccccc2)cc1 [Methyl yellow] | 3.3 | yellow | red | 2.9 | 4.0 | –
9 | Azolitmin [Azolitmin (litmus)] | – | blue | red | 4.5 | 8.3 | –

The next lines start with results.

Row | pKa | High pH color | Low pH color | pH start | pH end | Molecule | also measured
10 | – | red | blue-violet | 3.0 | 5.0 | Nc1c(/N=N/c2ccc(-c3ccc(/N=N/c4cc(S(=O)(=O)O)c5ccccc5c4N)cc3)cc2)cc(S(=O)(=O)O)c2ccccc12 [Congo red] | –
11 | – | purple | colorless | 8.2 | 9.8 | Cc1cc(C2(c3ccc(O)c(C)c3)OC(=O)c3ccccc32)ccc1O [Cresolphthalein] | –
12 | – | yellow | blue | 11.4 | 13.0 | O=C1/C(=C2\Nc3ccc(S(=O)(=O)[O-])cc3C2=O)Nc2ccc(S(=O)(=O)[O-])cc21.[Na+].[Na+] [Indigo carmine] | –
13 | 3.5 | yellow | red | 3.1 | 4.4 | CN(C)c1ccc(N=Nc2ccc(S(=O)(=O)[O-])cc2)cc1.[Na+] [Methyl orange] | –
14 | 5.1 | yellow | red | 4.4 | 6.2 | CN(C)c1ccc(/N=N/c2ccccc2C(=O)O)cc1 [Methyl red] | –
15 | – | greenish- | pale red | 7.3 | 8.7 | O=C1OC(c2ccc(O)c3ccccc23)(c2ccc(O)c3ccccc23)c2ccccc21 [Naphtholphthalein] | –
16 | – | yellow | red | 6.8 | 8.0 | Cc1cc2nc3ccc(N(C)C)cc3nc2cc1N.Cl [Neutral red] | –
17 | 9.5 | red-pink | colorless | 8.3 | 10.0 | O=C1OC(c2ccc(O)cc2)(c2ccc(O)cc2)c2ccccc21 [Phenolphthalein] | –
18 | 1.7 | yellow | red | 1.2 | 2.8 | Cc1cc(O)c(C(C)C)cc1C1(c2cc(C(C)C)c(O)cc2C)OS(=O)(=O)c2ccccc21 [Thymol blue - step 1, Thymol blue] | High pH color (listed as Thymol blue - step 2): blue; Low pH color (listed as Thymol blue - step 2): yellow; pKa (listed as Thymol blue - step 2): 9.2; pH start (listed as Thymol blue - step 2): 8.0; pH end (listed as Thymol blue - step 2): 9.6
19 | 9.2 | blue | colorless | 9.0 | 10.5 | Cc1cc(O)c(C(C)C)cc1C1(c2cc(C(C)C)c(O)cc2C)OC(=O)c2ccccc21 [Thymolphthalein] | –
20 | – | green | purple | 4.8 | 5.4 | Methyl purple | –
